According to PMC10507793, “Discovery and computational studies of piperidine/piperazine-based compounds endowed with sigma receptor affinity” (RSC Medicinal Chemistry, 2023):
“Also recorded” adds a separate entry of the source.

Key:
[1] = biological target: T1, S2R (Rattus norvegicus, UniProt Q5U3Y7); test: S2R radioligand binding assay with [3H]DTG; conditions: for Ki: read-out: Ki ± SD S2R, rat liver homogenates, [3H]DTG, (+)-pentazocine as S1R masking agent, mean ± SD of at least two experiments in duplicate; for binding to S2R (in words): radioligand binding
T1 sequence (Q5U3Y7 1-176): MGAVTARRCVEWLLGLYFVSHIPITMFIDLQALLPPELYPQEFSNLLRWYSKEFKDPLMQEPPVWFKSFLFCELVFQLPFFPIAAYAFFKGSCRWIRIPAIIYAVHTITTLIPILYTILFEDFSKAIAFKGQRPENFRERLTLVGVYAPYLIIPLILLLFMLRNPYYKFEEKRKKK

[2] = biological target: T2, S1R (Rattus norvegicus, UniProt Q9R0C9); test: S1R radioligand binding assay with [3H](+)-pentazocine; conditions: for Ki: read-out: Ki ± SD S1R, rat liver homogenates, [3H](+)pentazocine, mean ± SD of at least two experiments in duplicate; for KiS2R/KiS1R ratio: selectivity over S2R; for binding to S1R (in words): radioligand binding
[3] = biological target: T2, S1R; test: S1R functional assay (phenytoin method, [3H](+)-pentazocine displacement); assay type: binding; set-up: liver homogenates from male Sprague Dawley rats; from tissue; host or cells: rat liver homogenate (male Sprague Dawley); conditions: rat liver; for ratio of Ki without phenytoin/with phenytoin: agonist if ratio >1, antagonist if ≤1
Experimental: Phenytoin is an allosteric modulator for the S1R, and it differentially modulates the affinity of S1R ligands on the basis of their agonist or antagonist profile.[22,23]
The experiments were performed one time in the presence of phenytoin and one time without phenytoin. […] The incubation of samples lasts 120 min at 37 °C. Unlabeled (+)-pentazocine (10 μM) was used to measure non-specific binding.
GraphPad Prism® 7.0 (GraphPad Software, San Diego, CA, USA) program was used to calculate the Ki values that are given as mean value ± SD from at least two independent experiments performed in duplicate.

[4] = biological target: S1R; conditions: co-crystallized ligand; no reference given; read-out: KiS1R; cited from earlier work

T2 sequence (Q9R0C9 whole entry): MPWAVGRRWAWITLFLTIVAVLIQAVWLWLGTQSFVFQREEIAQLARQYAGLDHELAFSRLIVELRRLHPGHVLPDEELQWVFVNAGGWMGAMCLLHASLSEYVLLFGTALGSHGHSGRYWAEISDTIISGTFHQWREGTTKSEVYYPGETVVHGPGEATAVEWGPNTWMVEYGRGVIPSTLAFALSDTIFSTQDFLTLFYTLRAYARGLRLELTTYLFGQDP

| Structure (SMILES) | Ki [1] [nM] | Ki [2] [nM] | other results |
| --- | --- | --- | --- |
| O=C(CN1CCC(Cc2ccccc2)CC1)N1CCN(c2ccccc2)CC1 [Compound 1, 2-[4-(benzyl)-1-piperidin-1-yl]-1-4-(4-phenylpiperazin-1-yl)ethanone] | 104 ± 15 | 3.2 ± 0.7 | KiS2R/KiS1R ratio [2]: 33; S1R functional profile ([3]; phenytoin assay): S1R agonist; ratio of Ki without phenytoin/with phenytoin [3]: 1.8 |
| O=C(c1ccccc1)N1CCN(c2ccc(O)cc2)CC1 [Compound 12] | > 10000 | > 10000 | binding to S2R (in words) [1]: failed to bind; also recorded: did not bind; binding to S1R (in words) [2]: failed to bind; also recorded: did not bind |
| O=C(c1ccc([N+](=O)[O-])s1)N1CCN(Cc2ccc(F)cc2)CC1 [Compound 9] | > 10000 | 309 ± 55 |  |
| O=C(NC1CCN(Cc2ccccc2)CC1)c1ccc(I)cc1 [4-IBP] |  |  | Ki [4]: 1.7 nM |
| O=C(c1ccc(-c2ccccc2)cc1)N1CCN(c2ccc(O)cc2)CC1 [Compound 13] | > 10000 | > 10000 | binding to S2R (in words) [1]: failed to bind; also recorded: did not bind; binding to S1R (in words) [2]: failed to bind; also recorded: did not bind |
| O=C(C(c1ccccc1)c1ccccc1)N1CCN(Cc2ccc(F)cc2)CC1 [Compound 11] | > 10000 | 390 ± 77 |  |
| O=C(CN1CCC(Cc2ccccc2)CC1)N1CCN(c2ccc(O)cc2)CC1 [Compound 2] | 1200 ± 226 | 24 ± 5 | KiS2R/KiS1R ratio [2]: 50 |
| O=C(Cc1ccccc1Br)N1CCN(Cc2ccc(F)cc2)CC1 [Compound 10] | > 10000 | 366 ± 80 |  |
| C=CCN1CC[C@]2(C)c3cc(O)ccc3C[C@H]1[C@H]2C [SKF-10 047, reference compound] |  |  | ratio of Ki without phenytoin/with phenytoin [3]: 3.2 |
| O=C(CCN1CCC(Cc2ccc(F)cc2)CC1)N1CCN(c2ccc(O)cc2)CC1 [Compound 5] | 610 ± 146 | 434 ± 47 |  |
| O=C(CCN1CCC(Cc2ccccc2)CC1)N1CCN(c2ccccc2)CC1 [Compound 3] | 234 ± 43 | 8.9 ± 1.3 | KiS2R/KiS1R ratio [2]: 26 |
| Cc1ccc(C(=O)N2CCN(Cc3ccc(F)cc3)CC2)o1 [Compound 8] | > 10000 | 214 ± 29 |  |
| O=C(c1cc2ccccc2o1)N1CCN(Cc2ccc(F)cc2)CC1 [Compound 7] | > 10000 | 132 ± 27 |  |
| O=C(CCN1CCC(Cc2ccccc2)CC1)N1CCN(c2ccc(O)cc2)CC1 [Compound 4] | 1000 ± 203 | 328 ± 58 |  |
| O=C(c1cc2ccccc2s1)N1CCN(Cc2ccc(F)cc2)CC1 [Compound 6] | > 10000 | 82 ± 18 |  |
